Assay results taken from ChEMBL document CHEMBL5120822, “Inhibition of the P2X7/NLRP3 Inflammasome Signaling Pathway by Deacetylgedunin from Toona sinensis” (J Nat Prod, 2022).
Active and inactive are the calls of the source. The rule behind the calls is not given here.

What was measured:
RAW264.7 [1] = assay: Cytotoxicity against mouse RAW264.7 cells derived macrophage assessed as reduction in cell viability upto 40 uM incubated for 24 hrs by CCK-8 assay; assay type: toxicity, cell-based; details: raw264.7, 24 h
THP-1 [2] = assay: Antiinflammatory activity against PMA-differentiated human THP-1 cells assessed as reduction in IL-1beta level at 20 uM incubated for 1 hrs followed by LPS stimulation for 12 hrs and ATP addition for 0.5 hrs by ELISA; assay type: functional, cell-based; details: time 13.5 hrs
RAW264.7 [3] = assay: Antiinflammatory activity in mouse RAW264.7 assessed as inhibition of LPS-induced NO production incubated for 1 hrs followed by LPS stimulation for 18 hrs by Griess reagent based assay; assay type: functional, cell-based
THP-1 [4] = assay: Cytotoxicity against human THP-1 cells derived macrophage assessed as reduction in cell viability upto 40 uM incubated for 24 hrs by CCK-8 assay; assay type: toxicity, cell-based; details: thp-1, 24 h

CC1(C)C(=O)C=C[C@]2(C)[C@H]3CC[C@@]4(C)[C@H](c5ccoc5)OC(=O)[C@H]5O[C@]54[C@]3(C)C(=O)C[C@@H]12 [DEACETOXY-7-OXOGEDUNIN]
Activity (RAW264.7 [1]): Toxic | Activity (THP-1 [2]): Active | IC50 (RAW264.7 [3]): 9.46 µM | Activity (THP-1 [4]): Toxic
